Calls of active or inactive are those of the source. The calls are words filed in the database; no cut-off is given here.
Key:
MIN6 [1] = assay: Cytotoxicity against mouse MIN6 cells assessed as cell viability at 20 uM equiv. LSF measured after 48 hrs by MTT assay; format: cell-based; settings: min6, 48 h
Erythrocyte = assay: Induction of hemolysis in Wistar rat RBC at 20 uM equiv. LSF measured after 1 hr by spectrophotometric method; format: cell-based
[2] = Drug uptake in mouse MIN6 cells assessed as lisofylline-level in cell lysates at 20 uM equiv. LSF measured after 6 hrs by HPLC analysis; format: ADME, subcellular; settings: min6, 6 h
MIN6 [3] = assay: Cytoprotective activity against cytokine-mediated cytotoxicity in mouse MIN6 cells assessed as increase in cell viability at 20 uM equiv. LSF incubated for 48 hrs in presence of cocktail of cytokines TNF-alpha/IL-1-beta/IFN-gamma by MTT assay; format: functional, cell-based
[4] = Initial plasma concentration in Wistar rat at 30 mg/kg, iv by HPLC analysis; format: ADME, organism-based
[5] = Half life in Wistar rat at 30 mg/kg, iv measured after 24 hrs by HPLC analysis; format: ADME, organism-based; settings: in vivo; for half-life: Wistar
[6] = AUC (0 to t) in Wistar rat at 30 mg/kg, iv measured after 24 hrs by HPLC analysis; format: ADME, organism-based; design: route intravenous, time 24 hrs, dose 30 mg/kg; settings: in vivo
[7] = AUC (0 to infinity) in Wistar rat at 30 mg/kg, iv by HPLC analysis; format: ADME, organism-based; design: time infinity, route intravenous, dose 30 mg/kg; settings: in vivo; for AUC(0-inf): Wistar
[8] = AUMC (0 to t) in Wistar rat at 30 mg/kg, iv measured after 24 hrs by HPLC analysis; format: ADME, organism-based; settings: in vivo
[9] = AUMC (0 to infinity) in Wistar rat at 30 mg/kg, iv by HPLC analysis; format: ADME, organism-based; settings: in vivo
[10] = MRT in Wistar rat at 30 mg/kg, iv measured after 24 hrs by HPLC analysis; format: ADME, organism-based; settings: in vivo
[11] = Volume of distribution in Wistar rat at 30 mg/kg, iv measured after 24 hrs by HPLC analysis; format: ADME, organism-based; settings: in vivo
[12] = Clearance in Wistar rat at 30 mg/kg, iv measured after 24 hrs by HPLC analysis; format: ADME, organism-based; settings: in vivo
Rattus norvegicus [13] = assay: Antidiabetic activity against STZ-induced diabetic Wistar rat model assessed as decrease in fasting blood glucose level at 30 mg/kg, ip administered once daily for 5 weeks and measured after 3 weeks by glucometric analysis; format: functional, organism-based
Rattus norvegicus [14] = assay: Antidiabetic activity against STZ-induced diabetic Wistar rat model assessed as decrease in fasting blood glucose level at 30 mg/kg, ip administered once daily for 5 weeks and measured after 5 weeks by glucometric analysis; format: functional, organism-based
Rattus norvegicus [15] = assay: Antidiabetic activity against STZ-induced diabetic Wistar rat model assessed as increase in plasma insulin level at 30 mg/kg, ip administered once daily for 5 weeks and measured after 3 to 5 weeks; format: functional, organism-based; settings: time 3-5 weeks
Rattus norvegicus [16] = assay: Protection against STZ-induced oxidative stress-mediated liver toxicity in Wistar rat assessed as reduction in plasma ALAT level at 30 mg/kg, ip administered once daily for 5 weeks measured after 3 to 5 weeks; format: functional, organism-based; settings: time 3-5 weeks
Rattus norvegicus [17] = assay: Protection against STZ-induced oxidative stress-mediated liver toxicity in Wistar rat assessed as reduction in plasma ASAT level at 30 mg/kg, ip administered once daily for 5 weeks measured after 3 to 5 weeks; format: functional, organism-based; settings: time 3-5 weeks
Rattus norvegicus [18] = assay: Protection against STZ-induced renal toxicity in Wistar rat assessed as reduction in plasma uric acid level at 30 mg/kg, ip administered once daily for 5 weeks measured after 3 to 5 weeks; format: functional, organism-based; settings: time 3-5 weeks
Rattus norvegicus [19] = assay: Protection against STZ-induced dyslipidemia in Wistar rat assessed as reduction in plasma triglyceride level at 30 mg/kg, ip administered once daily for 5 weeks measured after 3 to 5 weeks; format: functional, organism-based; settings: time 3-5 weeks
Rattus norvegicus [20] = assay: Protection against STZ-induced dyslipidemia in Wistar rat assessed as reduction in plasma cholesterol level at 30 mg/kg, ip administered once daily for 5 weeks measured after 3 to 5 weeks; format: functional, organism-based; settings: time 3-5 weeks
Rattus norvegicus [21] = assay: Protection against STZ-induced pancreatic beta cell destruction in Wistar rat assessed as proper arrangement of islets at 30 mg/kg, ip administered once daily for 5 weeks and measured on day 35 by Hematoxylin and eosin staining based analysis; format: functional, organism-based
Albumin [22] = target: T1, Albumin (Bos taurus, UniProt P02769); assay: Binding affinity to bovine serum albumin assessed as decrease in fluorescence intensity measured after 30 mins by fluorescence quenching method; format: ADME; settings: cattle, isolated protein, 0.5 h
T1 sequence (P02769 whole entry): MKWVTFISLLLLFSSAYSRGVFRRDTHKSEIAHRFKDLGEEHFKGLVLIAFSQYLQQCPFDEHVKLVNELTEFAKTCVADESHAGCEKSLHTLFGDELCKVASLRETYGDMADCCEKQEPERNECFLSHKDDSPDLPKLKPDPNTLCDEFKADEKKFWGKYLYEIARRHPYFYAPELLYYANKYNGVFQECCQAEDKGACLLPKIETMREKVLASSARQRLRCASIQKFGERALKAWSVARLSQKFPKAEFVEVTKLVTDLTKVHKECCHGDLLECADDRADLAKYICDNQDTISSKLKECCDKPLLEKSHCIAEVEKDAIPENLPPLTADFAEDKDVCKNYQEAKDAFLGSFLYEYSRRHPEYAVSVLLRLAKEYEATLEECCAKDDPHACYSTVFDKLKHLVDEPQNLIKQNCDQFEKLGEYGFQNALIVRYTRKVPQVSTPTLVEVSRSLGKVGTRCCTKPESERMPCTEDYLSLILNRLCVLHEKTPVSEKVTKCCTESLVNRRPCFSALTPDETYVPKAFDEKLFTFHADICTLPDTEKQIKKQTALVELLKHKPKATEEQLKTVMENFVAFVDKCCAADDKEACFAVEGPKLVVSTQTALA

Albumin [23] = target: T1, Albumin; assay: Binding affinity to bovine serum albumin assessed as bathochromic peak shift measured after 30 mins by fluorescence quenching method; format: ADME; settings: cattle, isolated protein, 0.5 h
[24] = Elimination rate constant in Wistar rat at 30 mg/kg,iv measured after 24 hrs by HPLC analysis; format: ADME, organism-based; settings: in vivo
Rattus norvegicus [25] = assay: Antidiabetic activity against STZ-induced diabetic Wistar rat model assessed as decrease in mortality at 30 mg/kg, ip administered once daily for 5 weeks; format: functional, organism-based
Rattus norvegicus [26] = assay: Protection against STZ-induced inflammation in Wistar rat assessed as reduction in CD4+ T-cell infiltration into pancreatic islets at 30 mg/kg, ip administered once daily for 5 weeks and measured on day 35 by […] based analysis; format: functional, organism-based
Rattus norvegicus [27] = assay: Protection against STZ-induced inflammation in Wistar rat assessed as reduction in CD8+ T-cell infiltration into pancreatic islets at 30 mg/kg, ip administered once daily for 5 weeks and measured on day 35 by […] based analysis; format: functional, organism-based
[28] = Aggregation property of the compound assessed as critical micelle concentration by fluorescence based analysis; format: physicochemical
[29] = Prodrug release in rat plasma assessed as intact parent compound remaining measured after 72 hrs by HPLC analysis; format: ADME, cell-free
[30] = Initial plasma concentration in Wistar rat at 15 mg/kg, iv by HPLC analysis; format: ADME, organism-based
[31] = Half life in Wistar rat at 15 mg/kg, iv measured after 24 hrs by HPLC analysis; format: ADME, organism-based; settings: in vivo
[32] = AUC (0 to t) in Wistar rat at 15 mg/kg, iv measured after 24 hrs by HPLC analysis; format: ADME, organism-based; design: route intravenous, dose 15 mg/kg, time 24 hrs; settings: in vivo
[33] = AUC (0 to infinity) in Wistar rat at 15 mg/kg, iv by HPLC analysis; format: ADME, organism-based; design: time infinity, route intravenous, dose 15 mg/kg; settings: in vivo
[34] = AUMC (0 to t) in Wistar rat at 15 mg/kg, iv measured after 24 hrs by HPLC analysis; format: ADME, organism-based; settings: in vivo
[35] = AUMC (0 to infinity) in Wistar rat at 15 mg/kg, iv by HPLC analysis; format: ADME, organism-based; settings: in vivo
[36] = MRT in Wistar rat at 15 mg/kg, iv measured after 24 hrs by HPLC analysis; format: ADME, organism-based; settings: in vivo
[37] = Volume of distribution in Wistar rat at 15 mg/kg, iv measured after 24 hrs by HPLC analysis; format: ADME, organism-based; settings: in vivo
[38] = Clearance in Wistar rat at 15 mg/kg, iv measured after 24 hrs by HPLC analysis; format: ADME, organism-based; settings: in vivo
[39] = Elimination rate constant in Wistar rat at 15 mg/kg,iv measured after 24 hrs by HPLC analysis; format: ADME, organism-based; settings: in vivo
Rattus norvegicus [40] = assay: Antidiabetic activity against STZ-induced diabetic Wistar rat model assessed as decrease in fasting blood glucose level at 15 mg/kg, ip administered once daily for 5 weeks and measured after 3 weeks by glucometric analysis; format: functional, organism-based
Rattus norvegicus [41] = assay: Antidiabetic activity against STZ-induced diabetic Wistar rat model assessed as decrease in fasting blood glucose level at 15 mg/kg, ip administered once daily for 5 weeks and measured after 5 weeks by glucometric analysis; format: functional, organism-based
Rattus norvegicus [42] = assay: Protection against STZ-induced pancreatic beta cell destruction in Wistar rat assessed as proper arrangement of islets at 15 mg/kg, ip administered once daily for 5 weeks and measured on day 35 by Hematoxylin and eosin staining based analysis; format: functional, organism-based

Row | Structure (SMILES) | Activity (MIN6 [1]) | Activity (Erythrocyte) | Activity (MIN6 [3]) | C0 [4] [ng/mL] | AUC(0-t) at 24 h [6] [ng·h/mL] | AUMCt [8] [ng·h²/mL] | AUMC [9] [ng·h²/mL] | Vd [11] [L/kg] | Activity (Rattus norvegicus [15]) | Activity (Rattus norvegicus [16]) | Activity (Rattus norvegicus [17]) | Activity (Rattus norvegicus [18]) | Activity (Rattus norvegicus [19]) | Activity (Rattus norvegicus [20]) | Activity (Rattus norvegicus [21]) | Kb (Albumin [22]) | k el at 24 h [24] [s⁻¹] | Activity (Rattus norvegicus [26]) | Activity (Rattus norvegicus [27]) | CMC [28] [µg/mL] | also measured
1 | CCCCCCCCCCCCCCCC(=O)OC(C)CCCCn1c(=O)c2c(ncn2C)n(C)c1=O (configuration not stated) | Non-Toxic | Non-Toxic | Active | 267 | 3490 | 29900 | 24800 | 13.8 | Active | Active | Active | Active | Active | Active | Active | 5.55 10^4L/mol | 4.72e-05 | Active | Active | 7.4 | Drug uptake [2]: Active; half-life [5]: 3.59 h; AUC(0-inf) [7]: 3890 ng·h/mL; MRT ([10]; Wistar, read-out: MRT): 9.07 h; clearance [12]: 64.9 mL/min/kg; Activity (Rattus norvegicus [13]): Active; Activity (Rattus norvegicus [14]): Active; Activity (Albumin [23]): Active; Activity (Rattus norvegicus [25]): Active
2 | CCCCCCCCC=CCCCCCCCC(=O)OC(C)CCCCn1c(=O)c2c(ncn2C)n(C)c1=O (configuration not stated) | Non-Toxic | Non-Toxic | Active | 4750 | 6110 | 30500 | 43200 | 15 | Active | Active | Active | Active | Active | Active | Active | 6.34 10^4L/mol | 4.44e-05 | Active | Active | 7.58 | Drug uptake [2]: 56 ng; half-life [5]: 4.44 h; AUC(0-inf) [7]: 6640 ng·h/mL; MRT ([10]; Wistar, read-out: MRT): 7.91 h; clearance [12]: 40.3 mL/min/kg; Activity (Rattus norvegicus [13]): Active; Activity (Rattus norvegicus [14]): Active; Stability [29]: 9.74%; Activity (Rattus norvegicus [25]): Active
3 | CC(CCCCn1c(=O)c2c(ncn2C)n(C)c1=O)OC(=O)CCCCC1CCSS1 (configuration not stated) | Non-Toxic | Non-Toxic | Active | 4120 | 13500 | 67500 | 77300 | 1.77 | Active | Active | Active | Active | Active | Active | Active | 2.05 10^4L/mol | 0.000142 | Active | Active | 6.31 | t1/2 ([5]; 30 mg/kg, 24 h): 1.26 h; AUC [7]: 13838.8 ng·h/mL; MRT ([10]; 30 mg/kg, 24 h): 5.16 h; Activity (Rattus norvegicus [13]): inactive; Activity (Rattus norvegicus [14]): inactive
4 | CCCCC/C=C/CC=CCCCCCCCC(=O)OC(C)CCCCn1c(=O)c2c(ncn2C)n(C)c1=O (configuration not stated) | Non-Toxic | Non-Toxic | Active | 4900 | 16200 | 77100 | 98700 | 2.59 | Active | Active | Active | Active | Active | Active | Active | 2.7 10^4L/mol | 6.39e-05 | Active | Active | 0.81 | Drug uptake [2]: Active; half-life [5]: 3.12 h; AUC [7]: 16984.11 ng·h/mL; MRT ([10]; Wistar, read-out: MRT): 6.55 h
5 | C[C@@H](O)CCCCn1c(=O)c2c(ncn2C)n(C)c1=O [LISOFYLLINE] | Non-Toxic |  |  |  |  |  |  |  |  |  |  |  |  |  |  | 6.32 10^4L/mol |  |  |  |  | C0 [30]: 16400 ng/mL; half-life [31]: 0.752 h; AUC(0-t) at 24 h [32]: 14700 ng·h/mL; AUC(0-inf) [33]: 14700 ng·h/mL; AUMCt [34]: 12100 ng·h²/mL; AUMC [35]: 12800 ng·h²/mL; MRT [36]: 0.818 h; Vd [37]: 0.962 L/kg; clearance [38]: 17 mL/min/kg; k el at 24 h [39]: 0.000257 s⁻¹; Activity (Rattus norvegicus [40]): Active; Activity (Rattus norvegicus [41]): Active; Activity (Rattus norvegicus [42]): Active

— ChEMBL document CHEMBL5036346, “Role of Chain Length and Degree of Unsaturation of Fatty Acids in the Physicochemical and Pharmacological Behavior of Drug-Fatty Acid Conjugates in Diabetes” (J Med Chem, 2021)
